In patent US5747456A, “Continuous low-dose administration of parathyroid hormone or its agonist” (Beth Israel Deaconess Medical Center, priority 1996, dated 1998):
Non-standard residues stand in square brackets, D forms with d. Residues, ends and D or L forms follow the SMILES beside them. Nle = CCCC[C@H](N)C(=O)O

Experiments:
[1] = target: T1, PTH/PTHrP receptor in SaOS-2 B10 cells (Homo sapiens, UniProt Q03431); experiment: Competition binding of mono-125I-[Nle8,18,Tyr34(3-I125)]bPTH1-34 NH2 to SaOS-2 B10 cells; conditions: 2 hrs at room temperature, read-out: IC50 (half maximal inhibition of binding of mono-125I-[Nle8,18,Tyr34(3-I125)]bPTH1-34 NH2)
T1 construct: endogenous in cells; host or cells: SaOS-2 B10 cells (subclone of the human osteosarcoma line SaOS-2)
T1 sequence (Q03431 27-593): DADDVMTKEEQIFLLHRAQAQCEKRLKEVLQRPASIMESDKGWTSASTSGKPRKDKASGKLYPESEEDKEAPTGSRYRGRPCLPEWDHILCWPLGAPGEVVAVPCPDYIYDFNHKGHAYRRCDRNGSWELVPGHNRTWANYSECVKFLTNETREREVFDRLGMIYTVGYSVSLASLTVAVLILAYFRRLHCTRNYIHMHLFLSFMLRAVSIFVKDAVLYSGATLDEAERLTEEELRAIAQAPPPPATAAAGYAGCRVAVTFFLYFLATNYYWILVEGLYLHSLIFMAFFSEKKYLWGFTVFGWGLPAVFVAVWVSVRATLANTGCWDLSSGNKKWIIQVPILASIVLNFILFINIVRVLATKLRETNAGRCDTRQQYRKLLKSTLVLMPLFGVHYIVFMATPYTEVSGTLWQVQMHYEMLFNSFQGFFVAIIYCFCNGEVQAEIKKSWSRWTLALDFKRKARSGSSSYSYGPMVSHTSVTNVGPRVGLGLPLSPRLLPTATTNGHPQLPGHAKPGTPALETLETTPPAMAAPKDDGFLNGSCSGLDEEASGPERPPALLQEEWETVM
Method: SaOS-2 B10 cells were maintained in RPMI1640 medium supplemented with 10% fetal bovine serum (FBS) and 2 mM glutamine at 37° C. in a humidified atmosphere of 5% CO2 in air. The medium was changed every three or four days, and the cells were subcultured every week by trypsinization.
SaOs-2 B10 cells were maintained for four days after they had reached confluence. The medium was replaced with 5% FBS […] medium and incubated for 2 hrs at room temperature with 10×10^4 cpm mono-^125 -I-[Nle^8,18,Tyr^34 (3-I^125)]bPTH1-34 NH2 in the presence or absence of a competing tested PTH agonist. The cells were washed four times with ice-cold PBS and lysed with 0.1M NaOH, and the radioactivity associated with the cells was counted in a scintillation counter. Synthesis of the radiolabelled [Nle8,18. Tyr^34 (3-I^125)]bPTH1-34 NH2 was carried out as described in Goldman M E et al., Endocrinology, 1988, 123, 1468-1475.
The binding assay was conducted on Analogs I-IV and Analog V (i.e., [Nle^8, Nle^18, Tyr^34 ]bPTH1-34 NH2).

[2] = tested on: adenylate cyclase in SaOS-2 B10 cells; experiment: Adenylate cyclase activity (cyclic AMP) in SaOS-2 B10 cells; type: cell-based, human; conditions: 1 mM IBMX, 5 min incubation with analog, read-out: EC50 (half maximal stimulation of adenylate cyclase)
Method: The adenylate cyclase activity induced by each of Analogs I-V was also measured in SaOS-2 B10 cells as described previously (Rodan et al. 1983 J. Clin. Invest. 72;1511; Goldman et al. 1988 Endocrinology 123, 1468). Confluent SaOS-2 B10 cells in 24 wells plates were incubated 0.5 μCi[^3 H]adenine (26.9 Ci/mmol, New England Nuclear, Boston, Mass.) in fresh medium at 37° C. for 2 hrs, and washed twice with Hank's solution. The cells were treated with 1 mM IBMX [isobutylmethylxanthine, Sigma, St. Louis, Mo.] in fresh medium for 15 min, and a tested PTH analog was added to the medium to incubate for 5 min. The reaction was stopped by the addition of 1.2M TCA followed by sample neutralization with 4N KOH. Cyclic AMP was isolated by the two-column chromatographic method (see Salomon et al. 1974 Anal. Biochem. 58;541). The radioactivity was counted in a scintillation counter (Liquid scintillation counter 2200CA, PACKARD, Downers Grove, Ill.).

SMILES | IC50 [1] [nM] | EC50 [2] [nM]
CCCC[C@H](NC(=O)[C@H](CO)NC(=O)[C@H](CO)NC(=O)[C@H](CC(C)C)NC(=O)[C@H](Cc1c[nH]cn1)NC(=O)[C@H](CCCCN)NC(=O)CNC(=O)[C@H](CC(C)C)NC(=O)[C@H](CC(N)=O)NC(=O)[C@H](Cc1c[nH]cn1)NC(=O)[C@H](CCCC)NC(=O)[C@H](Cc1ccccc1)NC(=O)[C@H](CCC(N)=O)NC(=O)[C@@H](NC(=O)[C@H](CCC(=O)O)NC(=O)[C@H](CO)NC(=O)[C@@H](NC(=O)[C@H](C)N)C(C)C)[C@@H](C)CC)C(=O)N[C@@H](CCC(=O)O)C(=O)N[C@@H](CCCNC(=N)N)C(=O)N[C@@H](CCCNC(=N)N)C(=O)N[C@@H](CCC(=O)O)C(=O)N[C@@H](Cc1c[nH]c2ccccc12)C(=O)N[C@@H](CC(C)C)C(=O)N[C@@H](CCCNC(=N)N)C(=O)N[C@@H](CCCCN)C(=O)N[C@@H](CCCCN)C(=O)N[C@@H](CC(C)C)C(=O)N[C@@H](CCC(N)=O)C(=O)N[C@@H](CC(=O)O)C(=O)N[C@H](C(=O)N[C@@H](Cc1c[nH]cn1)C(=O)N[C@@H](CC(N)=O)C(=O)N[C@@H](Cc1ccc(O)cc1)C(N)=O)C(C)C [Analog III, [Nle^8,18,Arg^21,Tyr^34]bPTH1-34 NH2] (H-AVSEIQF[Nle]HNLGKHLSS[Nle]ERREWLRKKLQDVHNY-NH2; N-terminus assumed) | 0.3 | 0.2
CCCC[C@H](NC(=O)[C@H](CO)NC(=O)[C@H](CO)NC(=O)[C@H](CC(C)C)NC(=O)[C@H](Cc1c[nH]cn1)NC(=O)[C@H](CCCCN)NC(=O)CNC(=O)[C@H](CC(C)C)NC(=O)[C@H](CC(N)=O)NC(=O)[C@H](Cc1c[nH]cn1)NC(=O)[C@H](CCCC)NC(=O)[C@H](Cc1ccccc1)NC(=O)[C@H](CCC(N)=O)NC(=O)[C@@H](NC(=O)[C@H](CCC(=O)O)NC(=O)[C@H](CO)NC(=O)[C@@H](NC(=O)[C@H](C)N)C(C)C)[C@@H](C)CC)C(=O)N[C@@H](CCCNC(=N)N)C(=O)N[C@@H](CCCNC(=N)N)C(=O)N[C@@H](CCCNC(=N)N)C(=O)N[C@@H](CCC(=O)O)C(=O)N[C@@H](Cc1c[nH]c2ccccc12)C(=O)N[C@@H](CC(C)C)C(=O)N[C@@H](CCCNC(=N)N)C(=O)N[C@@H](CCCCN)C(=O)N[C@@H](CCCCN)C(=O)N[C@@H](CC(C)C)C(=O)N[C@@H](CCC(N)=O)C(=O)N[C@@H](CC(=O)O)C(=O)N[C@H](C(=O)N[C@@H](Cc1c[nH]cn1)C(=O)N[C@@H](CC(N)=O)C(=O)N[C@@H](Cc1ccc(O)cc1)C(N)=O)C(C)C [Analog IV, [Nle^8,18,Arg^19,21,Tyr^34]bPTH1-34 NH2] (H-AVSEIQF[Nle]HNLGKHLSS[Nle]RRREWLRKKLQDVHNY-NH2; N-terminus assumed) | 0.3 | 0.5
CCCC[C@H](NC(=O)[C@H](CO)NC(=O)[C@H](CO)NC(=O)[C@H](CC(C)C)NC(=O)[C@H](Cc1c[nH]cn1)NC(=O)[C@H](CCCCN)NC(=O)CNC(=O)[C@H](CC(C)C)NC(=O)[C@H](CC(N)=O)NC(=O)[C@H](Cc1c[nH]cn1)NC(=O)[C@H](CCCC)NC(=O)[C@H](Cc1ccccc1)NC(=O)[C@H](CCC(N)=O)NC(=O)[C@@H](NC(=O)[C@H](CCC(=O)O)NC(=O)[C@H](CO)NC(=O)[C@@H](NC(=O)[C@H](C)N)C(C)C)[C@@H](C)CC)C(=O)N[C@@H](CCC(=O)O)C(=O)N[C@@H](CCCNC(=N)N)C(=O)N[C@H](C(=O)N[C@@H](CCC(=O)O)C(=O)N[C@@H](Cc1c[nH]c2ccccc12)C(=O)N[C@@H](CC(C)C)C(=O)N[C@@H](CCCNC(=N)N)C(=O)N[C@@H](CCCCN)C(=O)N[C@@H](CCCCN)C(=O)N[C@@H](CC(C)C)C(=O)N[C@@H](CCC(N)=O)C(=O)N[C@@H](CC(=O)O)C(=O)N[C@H](C(=O)N[C@@H](Cc1c[nH]cn1)C(=O)N[C@@H](CC(N)=O)C(=O)N[C@@H](Cc1ccc(O)cc1)C(N)=O)C(C)C)C(C)C [Analog V, [Nle^8, Nle^18, Tyr^34]bPTH1-34 NH2, reference compound] (H-AVSEIQF[Nle]HNLGKHLSS[Nle]ERVEWLRKKLQDVHNY-NH2; N-terminus assumed) | 1.5 | 2

Continued by falling IC50 [1], values first:

IC50 [1] [nM] | EC50 [2] [nM] | SMILES
1.5 | 1.5 | CCCC[C@H](NC(=O)[C@H](CO)NC(=O)[C@H](CO)NC(=O)[C@H](CC(C)C)NC(=O)[C@H](Cc1c[nH]cn1)NC(=O)[C@H](CCCCN)NC(=O)CNC(=O)[C@H](CC(C)C)NC(=O)[C@H](CC(N)=O)NC(=O)[C@H](Cc1c[nH]cn1)NC(=O)[C@H](CCCC)NC(=O)[C@H](Cc1ccccc1)NC(=O)[C@H](CCC(N)=O)NC(=O)[C@@H](NC(=O)[C@H](CCC(=O)O)NC(=O)[C@H](CO)NC(=O)[C@@H](NC(=O)[C@H](C)N)C(C)C)[C@@H](C)CC)C(=O)N[C@@H](CCC(=O)O)C(=O)N[C@@H](CCCNC(=N)N)C(=O)N[C@H](C(=O)N[C@@H](Cc1ccccc1)C(=O)N[C@@H](Cc1c[nH]c2ccccc12)C(=O)N[C@@H](CC(C)C)C(=O)N[C@@H](CCCNC(=N)N)C(=O)N[C@@H](CCCCN)C(=O)N[C@@H](CCCCN)C(=O)N[C@@H](CC(C)C)C(=O)N[C@@H](CCC(N)=O)C(=O)N[C@@H](CC(=O)O)C(=O)N[C@H](C(=O)N[C@@H](Cc1c[nH]cn1)C(=O)N[C@@H](CC(N)=O)C(=O)N[C@@H](Cc1ccc(O)cc1)C(N)=O)C(C)C)C(C)C [Analog I, [Nle^8,18,Phe^22,Tyr^34]bPTH1-34 NH2] (H-AVSEIQF[Nle]HNLGKHLSS[Nle]ERVFWLRKKLQDVHNY-NH2; N-terminus assumed)
0.6 | 2 | CCCC[C@H](NC(=O)[C@H](CO)NC(=O)[C@H](CO)NC(=O)[C@H](CC(C)C)NC(=O)[C@H](Cc1c[nH]cn1)NC(=O)[C@H](CCCCN)NC(=O)CNC(=O)[C@H](CC(C)C)NC(=O)[C@H](CC(N)=O)NC(=O)[C@H](Cc1c[nH]cn1)NC(=O)[C@H](CCCC)NC(=O)[C@H](Cc1ccccc1)NC(=O)[C@H](CCC(N)=O)NC(=O)[C@@H](NC(=O)[C@H](CCC(=O)O)NC(=O)[C@H](CO)NC(=O)[C@@H](NC(=O)[C@H](C)N)C(C)C)[C@@H](C)CC)C(=O)N[C@@H](CCCNC(=N)N)C(=O)N[C@@H](CCCNC(=N)N)C(=O)N[C@H](C(=O)N[C@@H](CCC(=O)O)C(=O)N[C@@H](Cc1c[nH]c2ccccc12)C(=O)N[C@@H](CC(C)C)C(=O)N[C@@H](CCCNC(=N)N)C(=O)N[C@@H](CCCCN)C(=O)N[C@@H](CCCCN)C(=O)N[C@@H](CC(C)C)C(=O)N[C@@H](CCC(N)=O)C(=O)N[C@@H](CC(=O)O)C(=O)N[C@H](C(=O)N[C@@H](Cc1c[nH]cn1)C(=O)N[C@@H](CC(N)=O)C(=O)N[C@@H](Cc1ccc(O)cc1)C(N)=O)C(C)C)C(C)C [Analog II, [Nle^8,18,Arg^19,Tyr^34]bPTH1-34 NH2] (H-AVSEIQF[Nle]HNLGKHLSS[Nle]RRVEWLRKKLQDVHNY-NH2; N-terminus assumed)
